From ChEMBL document CHEMBL1201862, “PubChem BioAssay data set” (2004)
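Interpolation was linear, between the two tested concentrations surrounding the appropriate level; five concentrations were tested over 48 hours in 96-well plates. GI50: concentration for 50% inhibition of growth.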 The source made the active and inactive calls. Cut-off read from the data, not from the text of the source: active = GI50 up to about 1.1 µM and inactive = higher.

Key:
Assay in all cases: NCI tumour cell line growth inhibition, 48 h
DLD-1 = tested on: DLD-1
DMS-114 = tested on: DMS-114
DMS-273 = tested on: DMS-273
HOP-18 = tested on: HOP-18
KM-20L2 = tested on: KM-20L2
LXFL 529 = tested on: LXFL 529
M19-MEL = tested on: M19-MEL
RXF 631 = tested on: RXF 631
XF498 = tested on: XF498

## O=C1/C(=C/c2ccccc2)CN(C(=O)CCN2CCOCC2)C/C1=C\c1ccccc1
DLD-1
  GI50: 1.88 µM (inactive)
DMS-114
  GI50: 2.88 µM (inactive)
DMS-273
  GI50: 1.87 µM (inactive)
HOP-18
  GI50: 16.7 µM (inactive)
KM-20L2
  GI50: 1.92 µM (inactive)
LXFL 529
  GI50: 2.52 µM (inactive)
M19-MEL
  GI50: 2 µM (inactive)
RXF 631
  GI50: 7.8 µM (inactive)

## Oc1ccc2c3c1OC1C(=NN=C4CCC5(O)C6Cc7ccc(O)c8c7C5(CCN6CC5CC5)C4O8)CCC4(O)C(C2)N(CC2CC2)CCC314 (configuration not stated)
DLD-1
  GI50: 46 µM (inactive)
DMS-114
  GI50: 21.6 µM (inactive)
DMS-273
  GI50: 24.9 µM (inactive)
HOP-18
  GI50: > 100 µM (inactive)
KM-20L2
  GI50: 20.2 µM (inactive)
LXFL 529
  GI50: 20.8 µM (inactive)
M19-MEL
  GI50: 21.7 µM (inactive)
XF498
  GI50: 19 µM (inactive)

## COc1ccc(OC)c(NC(=O)CCC/C(CC(=O)c2ccc(O)c(OC)c2)=N\Nc2ccc([N+](=O)[O-])cc2)c1
DLD-1
  GI50: > 100 µM (inactive)
DMS-114
  GI50: > 100 µM (inactive)
DMS-273
  GI50: 57.3 µM (inactive)
HOP-18
  GI50: > 100 µM (inactive)
KM-20L2
  GI50: > 100 µM (inactive)
LXFL 529
  GI50: 32.7 µM (inactive)
M19-MEL
  GI50: > 100 µM (inactive)
RXF 631
  GI50: 96.4 µM (inactive)
XF498
  GI50: 41.1 µM (inactive)

## O=C(C(=O)N1CC2C=CC1CC2)c1c[nH]c2ccccc12 (configuration not stated)
DLD-1
  GI50: > 100 µM (inactive)
DMS-114
  GI50: > 100 µM (inactive)
DMS-273
  GI50: > 100 µM (inactive)
HOP-18
  GI50: > 100 µM (inactive)
KM-20L2
  GI50: > 100 µM (inactive)
LXFL 529
  GI50: > 100 µM (inactive)
M19-MEL
  GI50: > 100 µM (inactive)
RXF 631
  GI50: > 100 µM (inactive)

## O=C1O/C(=C(\Br)c2cccc3ccccc23)c2ccccc21
DLD-1
  GI50: 23.5 µM (inactive)
DMS-114
  GI50: > 33.3 µM (inactive)
DMS-273
  GI50: 24.5 µM (inactive)
HOP-18
  GI50: 19.5 µM (inactive)
KM-20L2
  GI50: 25.1 µM (inactive)
LXFL 529
  GI50: > 47.1 µM (inactive)
M19-MEL
  GI50: 36.1 µM (inactive)

## N/N=C1\C(=O)N(c2ccc(Cl)cc2Cl)C(=O)C(=O)C1c1nc2ccccc2o1 (configuration not stated)
DLD-1
  GI50: > 100 µM (inactive)
DMS-114
  GI50: > 100 µM (inactive)
DMS-273
  GI50: > 100 µM (inactive)
HOP-18
  GI50: > 100 µM (inactive)
KM-20L2
  GI50: > 100 µM (inactive)
LXFL 529
  GI50: > 100 µM (inactive)
M19-MEL
  GI50: > 100 µM (inactive)
RXF 631
  GI50: > 100 µM (inactive)

## Cc1ccc2nc(NC(=O)C(=O)C(C(=O)c3ccc4ccccc4c3)C3OC(=O)c4ccccc43)sc2c1 (configuration not stated)
DLD-1
  GI50: 13 µM (inactive)
DMS-114
  GI50: 8.22 µM (inactive)
LXFL 529
  GI50: 4.35 µM (inactive)
M19-MEL
  GI50: 14.5 µM (inactive)

## COc1ccc(-c2cc(=O)c3ccccc3[nH]2)c(OC)c1
DLD-1
  GI50: > 100 µM (inactive)
DMS-114
  GI50: > 100 µM (inactive)
DMS-273
  GI50: > 100 µM (inactive)
KM-20L2
  GI50: > 100 µM (inactive)
LXFL 529
  GI50: > 100 µM (inactive)
M19-MEL
  GI50: > 100 µM (inactive)

## CC(=O)O[C@H]1CC[C@@]2(C)C(=CC[C@@H]3C2CC[C@]2(C)Nc4[nH]ncc4CC32)C1 (some centres not stated)
DLD-1
  GI50: 32 µM (inactive)
DMS-114
  GI50: 16.5 µM (inactive)
DMS-273
  GI50: 16.9 µM (inactive)
KM-20L2
  GI50: 27.9 µM (inactive)
LXFL 529
  GI50: 19.9 µM (inactive)
M19-MEL
  GI50: 24.7 µM (inactive)
RXF 631
  GI50: 16.7 µM (inactive)
XF498
  GI50: 4.1 µM (inactive)

## CC(C)(C)C1CC[C@H]2c3c([nH]c4ccc(Br)cc34)[C@H]3C(=O)N(c4ccccc4)C(=O)[C@H]3[C@H]2C1 (some centres not stated)
DLD-1
  GI50: 27.8 µM (inactive)
DMS-114
  GI50: 18.2 µM (inactive)
DMS-273
  GI50: 6.27 µM (inactive)
HOP-18
  GI50: 33 µM (inactive)
KM-20L2
  GI50: 45.9 µM (inactive)
LXFL 529
  GI50: 14.3 µM (inactive)
M19-MEL
  GI50: 19.8 µM (inactive)
RXF 631
  GI50: 4.13 µM (inactive)
XF498
  GI50: 16.9 µM (inactive)

## CCN(CC)CCn1ccc(=O)c2cc3c(=O)ccn(CCN(CC)CC)c3c(C)c21
DLD-1
  GI50: 1.65 µM (inactive)
DMS-114
  GI50: 13.8 µM (inactive)
DMS-273
  GI50: 3.58 µM (inactive)
HOP-18
  GI50: 6.82 µM (inactive)
KM-20L2
  GI50: 3.61 µM (inactive)
LXFL 529
  GI50: 4.41 µM (inactive)
M19-MEL
  GI50: 12.6 µM (inactive)
RXF 631
  GI50: 5.74 µM (inactive)
XF498
  GI50: 8.95 µM (inactive)

## CCC(C)Cn1c(C)nc2c1C(=O)c1ccccc1C2=O (configuration not stated)
DLD-1
  GI50: 24.6 µM (inactive)
DMS-273
  GI50: 9.86 µM (inactive)
KM-20L2
  GI50: 31.2 µM (inactive)
LXFL 529
  GI50: 17 µM (inactive)
M19-MEL
  GI50: 18.1 µM (inactive)
XF498
  GI50: 22.5 µM (inactive)

## CC1(C)C(=O)C(C)(C)C1=S
DLD-1
  GI50: > 100 µM (inactive)
DMS-114
  GI50: > 100 µM (inactive)
DMS-273
  GI50: > 100 µM (inactive)
KM-20L2
  GI50: > 100 µM (inactive)
LXFL 529
  GI50: > 100 µM (inactive)
M19-MEL
  GI50: > 100 µM (inactive)
XF498
  GI50: > 100 µM (inactive)

## CCOP(=O)(C/C(O)=C1\C(=O)C(CCCNC(=O)OC(C)(C)C)N(Cc2ccc(OC)c(OC)c2)C1=O)OCC (configuration not stated)
DLD-1
  GI50: > 100 µM (inactive)
DMS-114
  GI50: > 100 µM (inactive)
DMS-273
  GI50: > 100 µM (inactive)
HOP-18
  GI50: > 100 µM (inactive)
KM-20L2
  GI50: > 100 µM (inactive)
LXFL 529
  GI50: > 100 µM (inactive)
M19-MEL
  GI50: > 100 µM (inactive)
RXF 631
  GI50: > 100 µM (inactive)

## COC(C)(C)[C@H](O)C(O)CC(C)[C@@H]1CCC23CC12CCC1[C@@]2(C)CCC(OC(C)=O)C(C)(C)C2CC(OC2OC(COC(C)=O)C(O)C(O)C2O)[C@]13C (some centres not stated)
DLD-1
  GI50: 1.83 µM (inactive)
DMS-114
  GI50: 2.61 µM (inactive)
DMS-273
  GI50: 2.97 µM (inactive)
HOP-18
  GI50: 11 µM (inactive)
KM-20L2
  GI50: 1.1 µM (active)
LXFL 529
  GI50: 4.89 µM (inactive)
M19-MEL
  GI50: 3.01 µM (inactive)
RXF 631
  GI50: 4.86 µM (inactive)

## C=C(CN(C)C)C(=O)c1ccccc1[N+](=O)[O-]
DLD-1
  GI50: 13.4 µM (inactive)
DMS-114
  GI50: 18.3 µM (inactive)
DMS-273
  GI50: 18.2 µM (inactive)
HOP-18
  GI50: 18.7 µM (inactive)
KM-20L2
  GI50: 23.4 µM (inactive)
LXFL 529
  GI50: 14.8 µM (inactive)
M19-MEL
  GI50: 17.8 µM (inactive)
RXF 631
  GI50: 19 µM (inactive)
XF498
  GI50: 17.1 µM (inactive)
